Measured values: patent US4780462A, “Antihypertensive 1,5-benzothiazepine derivatives and compositions thereof” (Kotokuki Seiya Kau Co., Ltd., priority 1986, dated 1988)

Experiments:
Guinea-pig taenia caecum = assay: Ca++-antagonistic activity (isolated guinea-pig taenia caecum); details: Cavia porcellus, 0.05 h; Ca++-induced contraction of taenia caecum, Ca++-free Krebs Ringer; pretreatment with compound 3 minutes before; read-out: PA2 value (converted)
Procedure: Ca^++ -Antagonistic activity. Experiments are carried out according to the method of M. Ferrari (Arch. Intern. Pharmacoadyn. 174, 223 (1968) Guinea-pig taenia caecum is isolated and suspended in a bath which is filled with Ca^++ -free Krebs Ringer solution for 30 minutes. In this condition, taenia caecum is contracted by elevating Ca^++ -ion concentration of Krebs Ringer and obtained a dose-response curve against Ca^++ -ion. Pretreatment with the compound of this invention before 3 minutes, and obtained a dose-response curve under the existence of the compound of this invention.
From these two dose-response curves, PA2 value is calculated and PA2 is expressed as index of activities. (Table 1)

[1] = system: anesthetized normotensive rats; assay: Antihypertensive activity on anesthetized normotensive rats; assay type: in vivo; details: dose which lowers the mean blood pressure by 15 mmHg, i.v. (femoral vein); urethane anesthetized normotensive male Wistar rats
Procedure: The antihypertensive activities of the compounds on anesthetized normotensive rats were tested according to the method of H. Sogabe.^(1) Male Wistar rats weighing 200-300 g were anesthetized with urethane (1.2 g/kg. i.v.). Blood pressure was measured by a transducer (Nihon Koden RT-5) connected the catheter inserted into the femoral artery. The test compounds in physiological saline (0.1 ml/100 g. B.W.) were injected via the femoral vein. The antihypertensive activity was assessed by comparing with MBP15 (dose which lowers the mean blood pressure by 15 mmHg, mg/kg i.v.).
(1) Hirobumi Sogabe "Jikken Kouketsuatsushou nyuumon" p227 (Eikoudo 1968).

[2] = Acute toxicity in mice per os; details: mouse, in vivo, po
Text: The acute toxicity of the compounds of this invention in mice per os is as follows. (Table 4)

[3] = system: isolated guinea-pig heart; assay: Coronary artery dilating activity (Rangendorf method, isolated guinea-pig heart); details: coronary blood flow examined for 2 minutes
Text: The coronary artery dilating activity of the compounds is estimated by Rangendorf method (Pfugers. Arch. Ges. Physiol. 62, 291 (1895)) using the isolated guinea-pig heart.

Row | Structure (SMILES) | Kb (Guinea-pig taenia caecum) [nM] | Antihypertensive act. (M.B.P.15) [1] [µg] | maximum increased blood flow ([3]; 10 μg/heart) [mL] | maximum increased blood flow ([3]; 30 μg/heart) [mL] | further results
1 | COc1cccc(OC)c1OCCNCCC(=O)N1CCCSc2ccccc21 [Compound 1, 5-[3-(2-(2-,6-dimethoxyphenoxy)ethylamino)-propionyl]-2,3,4,5-tetrahydro-1,5-benzothiazepine·fumarate] | 813 |  |  |  | 
2 | CC(C)c1cccc(C(C)C)c1OCCNCCC(=O)N1CCCSc2ccccc21 [Compound 3, 5-[3-(2-(2,6-diisopropylphenoxy)ethylamino)-propionyl]-2,3,4,5-tetrahydro-1,5-benzothiazepine·fumarate] |  | 1.35 |  |  | LD50 [2]: 1500 mg/kg
3 | Cc1cccc(C)c1OCCNCCC(=O)N1CCCSc2ccccc21 [Compound 4, 5-[3-(2-(2,6-dimethylphenoxy)ethylamino)propionyl]-2,3,4,5-tetrahydro-1,5-benzothiazepine·fumarate] | 102 |  | 7.2 | 19.2 | 
4 | O=C(CCNCCSc1ccc([N+](=O)[O-])cc1)N1CCCSc2ccccc21 [Compound 5, 5-[3-(2-(4-nitrophenylthio)ethylamino)propionyl]-2,3,4,5-tetrahydro-1,5-benzothiazepine·fumarate] | 97.7 | 2.0 |  |  | 
5 | Nc1cccc(OCCNCCC(=O)N2CCCSc3ccccc32)c1 [Compound 6, 5-[3-(2-(3-aminophenoxy)ethylamino)propionyl]-2,3,4,5-tetrahydro-1,5-benzothiazepine·fumarate] |  |  | 4.6 | 6.0 | 
6 | O=C(CCNCCOc1cccc([N+](=O)[O-])c1)N1CCCSc2ccccc21 [Compound 7, 5-[3-(2-(3-nitrophenoxy)ethylamino)propionyl]-2,3,4,5-tetrahydro-1,5-benzothiazepine·fumarate] | 245 | 4.2 |  |  | 
7 | COc1ccc(OCCNCCC(=O)N2CCCSc3ccccc32)cc1 [Compound 8, 5-[3-(2-(4-methoxyphenoxy)ethylamino)propionyl]-2,3,4,5-tetrahydro-1,5-benzothiazepine·fumarate] | 603 |  |  |  | 
8 | Cc1cccc(OCCNCCC(=O)N2CCCSc3ccccc32)c1 [Compound 11, 5-[3-(2-(3-methylphenoxy)ethylamino)propionyl]-2,3,4,5-tetrahydro-1,5-benzothiazepine·fumarate] |  | 34.7 |  | 16.5 | maximum increased blood flow ([3]; 3 μg/heart): 7.7 mL
9 | Cc1cc(C)c(OCCNCCC(=O)N2CCCSc3ccccc32)c(C)c1 [Compound 12, 5-[3-(2-(2,4,6-trimethylphenoxy)ethylamino)propionyl]-2,3,4,5-tetrahydro-1,5-benzothiazepine·fumarate] | 55 |  | 11.3 | 18.3 | 
10 | O=C(CCNCCOc1ccc(Cl)cc1Cl)N1CCCSc2ccccc21 [Compound 13, 5-[3-(2-(2,4-dichlorophenoxy)ethylamino)propionyl]-2,3,4,5-tetrahydro-1,5-benzothiazepine·fumarate] | 126 | 3.5 |  |  | 
11 | Nc1ccccc1OCCNCCC(=O)N1CCCSc2ccccc21 [Compound 15, 5-[3-(2-(2-aminophenoxy)ethylamino)propionyl]-2,3,4,5-tetrahydro-1,5-benzothiazepine·fumarate] |  |  |  | 2.0 | LD50 [2]: 374 mg/kg
12 | O=C(CCNCCOc1ccc([N+](=O)[O-])cc1)N1CCCSc2ccccc21 [Compound 16, 5-[3-(2-(4-nitrophenoxy)ethylamino)propionyl]-2,3,4,5-tetrahydro-1,5-benzothiazepine·fumarate] |  |  | 4.2 |  | 
13 | Cc1cccc(C)c1SCCNCCC(=O)N1CCCSc2ccccc21 [Compound 17, 5-[3-(2-(2,6-dimethylphenylthio)ethylamino)propionyl]-2,3,4,5-tetrahydro-1,5-benzothiazepine·fumarate] |  | 9.3 |  |  | 
